Data as given in patent publication US20240383908A1, “SYNTHESIS AND APPLICATION OF PHOSPHATASE DEGRADER” (HINOVA PHARMACEUTICALS INC., priority 2021, published 2024).

These compounds were tested against T1, SHP2 protein (Homo sapiens, UniProt Q06124) (assay: Degradation activity on SHP2 protein in MV-411 cells (Western blot, DC50)). Conditions: MV411 cells, 24 hours, read-out: Degradation activity for differenct cell lines MV411 (DC50).
T1 sequence (Q06124 1-593): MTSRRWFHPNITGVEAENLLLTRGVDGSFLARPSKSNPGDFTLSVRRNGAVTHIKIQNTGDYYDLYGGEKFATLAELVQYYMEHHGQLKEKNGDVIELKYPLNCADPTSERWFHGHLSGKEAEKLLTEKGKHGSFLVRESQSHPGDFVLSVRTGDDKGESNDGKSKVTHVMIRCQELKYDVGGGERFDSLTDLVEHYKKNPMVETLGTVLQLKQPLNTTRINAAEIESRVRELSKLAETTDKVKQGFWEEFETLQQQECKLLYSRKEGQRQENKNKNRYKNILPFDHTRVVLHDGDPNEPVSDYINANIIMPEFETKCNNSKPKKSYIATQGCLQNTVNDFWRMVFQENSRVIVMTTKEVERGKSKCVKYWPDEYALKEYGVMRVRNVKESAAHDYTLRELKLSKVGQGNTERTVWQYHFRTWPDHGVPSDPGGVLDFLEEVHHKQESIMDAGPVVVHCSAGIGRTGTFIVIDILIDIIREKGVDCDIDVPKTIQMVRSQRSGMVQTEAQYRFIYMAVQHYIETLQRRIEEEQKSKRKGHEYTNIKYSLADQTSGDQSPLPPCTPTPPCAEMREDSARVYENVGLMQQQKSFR
Type: cell-based
Parameters: endogenous in cells
Description: • MV-411 cell line (COBIER, CBP-60522) • FBS (GEMINI, Cat. No. 900-108) • 0.01M PBS (Biosharp, Cat. No. 162262) • IMDM (Hyclone, Cat. No. SH30228.01) • Penicillin-Streptomycin (Gibco, Cat. No. 15140122) • DMSO (Sigma, Cat. No. D5879) • Centrifuge Tube, 15 ml (Excell Bio, Cat. No. CS015-0001) • Cell Culture Dish, (WHB, Cat. No. CS016-0128) • 12-well cell culture cluster (Corning, Cat. No. 3513) • RIPA lysate buffer (Thermo, Cat. No. 89900) • Protein Loding Buffer (Beyotime, Cat. No. P0015L) • BCA Protein Assay Kit (EpiZyme, Cat. No. ZJ102) • SDS-PAGE Fast Preparation Kit (EpiZyme, Cat. No. PG112) • Anti-GAPDH (14C10) Rabbit mAb (CST, Cat. No. 2118L) • Anti-SHP2 rabbit mAb (CST, Cat. No. 37525) • Peroxidase Affinipure (HRP) Goat Anti-Rabbit IgG (Zen Bioscience, Cat. No. 511203) • TBST (Biosharp, Cat. No. BL601A) • ECL chemiluminescence kit (4A Biotech, Cat. No. 4AW011-200)
• (1) Cell culture medium: IMIDM medium+10% FBS+1% Pen Strep; • (2) PBS buffer: PBS powder was dissolved in 2 L of ultrapure water and sterilized; • (3) Cell lysate: RIPA lysate buffer is added with protease inhibitors at a ratio of 1:1000 before use.
(1) MV-411 cells were cultured in the cell culture medium, and then well-growing cells were selected and inoculated in a 12-well plate, with 1 mL/well and 1×10^6 cells/well. The plate was incubated overnight in a 5% CO2 cell incubator at 37° C.
(2) 10 mM storage solution of each drug was prepared using dimethylsulfoxide (DMSO). The stock solution was diluted gradually with DMSO before use, and then 1 μL of the compound solution was added to the cell culture well (to ensure that the DMSO concentration in the culture system was […]), so that the final drug concentration is 100 nM, 10 nM, 3 nM, 1 nM, 0.3 nM, and 0.1 nM. Two wells were set for each concentration. The plate was gently shaken and mixed. Additionally, negative control wells (containing an equal amount of DMSO) and positive control wells were included.
(3) After 24 hours of cultivation, the cells were lysed using RIPA cell lysate, and the proteins were extracted. The protein concentration was measured using a BCA assay kit. 5× concentrated protein buffer was loaded, heated at 100° C. for 5 min, and then the sample was stored at −20° C.
(4) For each well, 30 μg of protein was loaded to polyacrylamide gel for electrophoresis.
(5) The protein was transferred from polyacrylamide gel to PVDF membrane, and sealed at room temperature with 5% skimmed milk for 1 h, which was then incubated with the primary antibodies (Anti-SHP2 rabbit mAb and Anti-GAPDH rabbit mAb) at 4° C. overnight. The membrane was washed three times with TBST solution, 10 minutes for each time. After that, the membrane was incubated with the secondary antibodies (horseradish peroxidase labeled goat anti-rabbit IgG) at room temperature for 2 h, and then washed three times with TBST solution, 10 minutes for each time, followed by exposure.
(6) The images were analyzed with Image J grayscale, and the degradation ratio of protein bands in the test group was calculated, based on the negative control group (DMSO) (100%).
(7) Using the Dose-response-inhibition equation in the data processing software GraphPad Prism 8, the DC50 value was obtained (which represents the drug concentration corresponding to 50% degradation of the target protein).
Finally, ECL detection solution was added for color development, and photos were taken with an automatic chemiluminescence instrument, so as to collect images and analyze them.

SMILES	DC50 [nM]
CC1(N)CCN(c2cnc(Sc3cccc(NC(=O)CCCCCCCCC(=O)NCc4ccc5c(c4)CN(C4CCC(=O)NC4=O)C5=O)c3)cn2)CC1 (centres unmarked) [Compound 53]	> 1000
Cc1ncsc1-c1ccc([C@H](C)NC(=O)[C@@H]2C[C@@H](O)CN2C(=O)[C@@H](NC(=O)CCCCCCCCCC(=O)Nc2cccc(Sc3cnc(N4CCC(C)(N)CC4)cn3)c2)C(C)(C)C)cc1 [Compound 56]	> 1000
CC1(N)CCN(c2cnc(Sc3cccc(NC(=O)CCCCCCCCCC(=O)NCc4ccc5c(c4)CN(C4CCC(=O)NC4=O)C5=O)c3)cn2)CC1 (centres unmarked) [Compound 57]	> 1000
Cc1ncsc1-c1ccc([C@H](C)NC(=O)[C@@H]2C[C@@H](O)CN2C(=O)[C@@H](NC(=O)CCCCCCCCCCCC(=O)Nc2cccc(Sc3cnc(N4CCC(C)(N)CC4)cn3)c2)C(C)(C)C)cc1 [Compound 58]	100 to 1000
Cc1ncsc1-c1ccc([C@H](C)NC(=O)[C@@H]2C[C@@H](O)CN2C(=O)[C@@H](NC(=O)c2cnc(N3CCN(CCCCCCCCC(=O)Nc4cccc(Sc5cnc(N6CCC(C)(C(N)=O)CC6)cn5)c4)CC3)nc2)C(C)(C)C)cc1 [Compound 60]	> 1000
CC1(C(N)=O)CCN(c2cnc(Sc3cccc(NC(=O)CCCCCCCCN4CCN(c5ncc(C(=O)NCc6cccc7c6CN(C6CCC(=O)NC6=O)C7=O)cn5)CC4)c3)cn2)CC1 (centres unmarked) [Compound 61]	> 1000
Cc1ncsc1-c1ccc([C@H](C)NC(=O)[C@@H]2C[C@@H](O)CN2C(=O)[C@@H](NC(=O)c2ccc(N3CCN(CCCCCCCCC(=O)Nc4cccc(Sc5cnc(N6CCC(C)(N)CC6)cn5)c4)CC3)nn2)C(C)(C)C)cc1 [Compound 62]	100 to 1000
CC1(N)CCN(c2cnc(Sc3cccc(NC(=O)COCCOCCN4CCN(c5ncc(C(=O)NCc6ccc7c(c6)CN(C6CCC(=O)NC6=O)C7=O)cn5)CC4)c3)cn2)CC1 (centres unmarked) [Compound 67]	> 1000
CC1(N)CCN(c2cnc(Sc3cccc(NC(=O)CCN4CC5(CCN(Cc6ccc(COc7cccc8c7CN(C7CCC(=O)NC7=O)C8=O)cc6)C5)C4)c3)cn2)CC1 (centres unmarked) [Compound 69]	> 1000
CC1(N)CCN(c2cnc(Sc3cccc(NC(=O)CCCCCCCN4CC5(C4)CN(c4ccc(C(=O)NCc6ccc7c(c6)CN(C6CCC(=O)NC6=O)C7=O)nn4)C5)c3)cn2)CC1 (centres unmarked) [Compound 81]	< 100
Cc1ncsc1-c1ccc([C@H](C)NC(=O)[C@@H]2C[C@@H](O)CN2C(=O)[C@@H](NC(=O)c2cnc(N3CCN(CCCC(=O)Nc4cccc(Sc5cnc(N6CCC(C)(N)CC6)cn5)c4)CC3)nc2)C(C)(C)C)cc1 [Compound 82]	< 100
CC1(N)CCN(c2cnc(Sc3cccc(NC(=O)CCCN4CCN(c5ncc(C(=O)NCc6ccc7c(c6)CN(C6CCC(=O)NC6=O)C7=O)cn5)CC4)c3)cn2)CC1 (centres unmarked) [Compound 83]	> 1000
CC1(N)CCN(c2cnc(Sc3cccc(NC(=O)CCN4CCN(Cc5ccc(COc6cccc7c6CN(C6CCC(=O)NC6=O)C7=O)cc5)CC4)c3)cn2)CC1 (centres unmarked) [Compound 84]	> 1000
CC(=O)NC1(C)CCN(c2cnc(Sc3cccc(NC(=O)CCCCCCCCN4CCN(c5ncc(C(=O)NCc6ccc7c(c6)CN(C6CCC(=O)NC6=O)C7=O)cn5)CC4)c3)cn2)CC1 (centres unmarked) [Compound 85]	> 1000
CC1(N)CCN(c2cnc(Sc3cccc(NC(=O)CCCCCCOC4CN(c5ncc(C(=O)NCc6ccc7c(c6)CN(C6CCC(=O)NC6=O)C7=O)cn5)C4)c3)cn2)CC1 (centres unmarked) [Compound 87]	< 100

Now from value to compound:

DC50 [nM]	SMILES
< 100	Cc1ncsc1-c1ccc([C@H](C)NC(=O)[C@@H]2C[C@@H](O)CN2C(=O)[C@@H](NC(=O)CCCCCCCCCCC(=O)Nc2cccc(Sc3cnc(N4CCC(C)(N)CC4)cn3)c2)C(C)(C)C)cc1 [Compound 49]
< 100	Cc1ncsc1-c1ccc([C@H](C)NC(=O)[C@@H]2C[C@@H](O)CN2C(=O)[C@@H](NC(=O)CCCCCCCCCCCCC(=O)Nc2cccc(Sc3cnc(N4CCC(C)(N)CC4)cn3)c2)C(C)(C)C)cc1 [Compound 50]
< 100	Cc1ncsc1-c1ccc([C@H](C)NC(=O)[C@@H]2C[C@@H](O)CN2C(=O)[C@@H](NC(=O)CCCCCCCCCCCCCCC(=O)Nc2cccc(Sc3cnc(N4CCC(C)(N)CC4)cn3)c2)C(C)(C)C)cc1 [Compound 51]
< 100	Cc1ncsc1-c1ccc([C@H](C)NC(=O)[C@@H]2C[C@@H](O)CN2C(=O)[C@@H](NC(=O)CCCCCCCCC(=O)Nc2cccc(Sc3cnc(N4CCC(C)(N)CC4)cn3)c2)C(C)(C)C)cc1 [Compound 52]
< 100	Cc1ncsc1-c1ccc([C@H](C)NC(=O)[C@@H]2C[C@@H](O)CN2C(=O)[C@@H](NC(=O)CCCCCCCCN2CCN(C(=O)/C=C/C(=O)Nc3cccc(Sc4cnc(N5CCC(C)(N)CC5)cn4)c3)CC2)C(C)(C)C)cc1 [Compound 54]
< 100	CC1(N)CCN(c2cnc(Sc3cccc(NC(=O)CCN4CC5(CCN(c6ncc(C(=O)NCc7ccc8c(c7)CN(C7CCC(=O)NC7=O)C8=O)cn6)C5)C4)c3)cn2)CC1 (centres unmarked) [Compound 65]
< 100	Cc1ncsc1-c1ccc([C@H](C)NC(=O)[C@@H]2C[C@@H](O)CN2C(=O)[C@@H](NC(=O)c2cnc(N3CCN(CCOCCOCC(=O)Nc4cccc(Sc5cnc(N6CCC(C)(N)CC6)cn5)c4)CC3)nc2)C(C)(C)C)cc1 [Compound 66]
< 100	CC1(N)CCN(c2cnc(Sc3cccc(NC(=O)CCCCCCCN4CC5(CCN(Cc6ccc(COc7cccc8c7CN(C7CCC(=O)NC7=O)C8=O)cc6)C5)C4)c3)cn2)CC1 (centres unmarked) [Compound 68]
< 100	CC1(N)CCN(c2cnc(Sc3cccc(NC(=O)CCCCCCCN4CC5(CCN(c6ncc(C(=O)NCc7ccc8c(c7)CN(C7CCC(=O)NC7=O)C8=O)cn6)C5)C4)c3)cn2)CC1 (centres unmarked) [Compound 70]
< 100	Cc1ncsc1-c1ccc([C@H](C)NC(=O)[C@@H]2C[C@@H](O)CN2C(=O)[C@@H](NC(=O)c2cnc(N3CCC4(CN(CCCCCCCC(=O)Nc5cccc(Sc6cnc(N7CCC(C)(N)CC7)cn6)c5)C4)C3)nc2)C(C)(C)C)cc1 [Compound 71]
< 100	CC1(N)CCN(c2cnc(Sc3cccc(NC(=O)CCCCCCCN4CCN(c5ncc(C(=O)NCc6ccc7c(c6)CN(C6CCC(=O)NC6=O)C7=O)cn5)CC4)c3)cn2)CC1 (centres unmarked) [Compound 72]
< 100	Cc1ncsc1-c1ccc([C@H](C)NC(=O)[C@@H]2C[C@@H](O)CN2C(=O)[C@@H](NC(=O)c2cnc(N3CCN(CCCCCCCC(=O)Nc4cccc(Sc5cnc(N6CCC(C)(N)CC6)cn5)c4)CC3)nc2)C(C)(C)C)cc1 [Compound 73]
< 100	Cc1ncsc1-c1ccc([C@H](C)NC(=O)[C@@H]2C[C@@H](O)CN2C(=O)[C@@H](NC(=O)CCCCCCCCN2CCN(C(=O)C3CC3C(=O)Nc3cccc(Sc4cnc(N5CCC(C)(N)CC5)cn4)c3)CC2)C(C)(C)C)cc1 (some centres unmarked) [Compound 77]
< 100	Cc1cc(C(=O)NCc2ccc3c(c2)CN(C2CCC(=O)NC2=O)C3=O)n(C2CCN(CCCCCCCCC(=O)Nc3cccc(Sc4cnc(N5CCC(C)(N)CC5)cn4)c3)CC2)n1 (centres unmarked) [Compound 80]
